How the values were obtained:
Conditions in all cases: 72 h
KCL-22 [1] = system: KCL-22
How it was run: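 The IC50 was read from log-logistic dose–response fits. Fifteen myeloid leukaemia lines were exposed for 72 h at 37 °C with 5% CO2 to five tenfold doses from 1 to 10,000 nM in duplicate. ATP luminescence, normalised to vehicle and to a 10 µM positive control, was fitted with four parameters.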

HL-60 [2] = assay: cell viability (% survival relative to DMSO control); higher = less cytotoxic
How it was run: (§1)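 For each screen, HL-60 cells in RPMI 1640 with 10% FBS carried either DMSO or 100 nM of one of three metabolic inhibitors while the full library was applied at five tenfold concentrations, 1–10,000 nM, in duplicate. Plates were 384-well and were kept 72 h at 37 °C, 5% CO2. Viability, measured by CellTiter-Glo, was normalised to wells with DMSO and with 10 μM proteasome inhibitor. Where area under the curve appears, it was fitted by four-parameter log-logistic models in drc and PharmacoGx.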

BV-173 = assay: cell viability (% survival relative to DMSO control, bortezomib = 0%); higher = less cytotoxic
How it was run: (§2)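 Percent survival is reported as the mean of duplicate wells. Cells from 10 AML and 5 CML lines were plated in 384-well plates containing compounds at 1, 10, 100, 1000 or 10000 nM and kept for 72 h at 37 °C in 5% CO2. Readout used CellTiter-Glo luminescence, scaled so that vehicle equals 100% and a 10 µM positive control equals 0%.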

HEL = assay: as above
How it was run: as §2

HL-60 [3] = assay: as above
How it was run: as §2

K-562 = assay: as above
How it was run: as §2

KCL-22 [4] = assay: as above
How it was run: as §2

KG-1 = assay: as above
How it was run: as §2

KU-812 = assay: as above
How it was run: as §2

LAMA-84 = assay: as above
How it was run: as §2

ML-2 = assay: as above
How it was run: as §2

MOLM-13 = assay: as above
How it was run: as §2

MV4-11 = assay: as above
How it was run: as §2

Mono-Mac-6 = assay: as above
How it was run: as §2

NOMO-1 = assay: as above
How it was run: as §2

SHI-1 = assay: as above
How it was run: as §2

THP-1 = assay: as above
How it was run: as §2

HL-60 [5] = assay: area under dose-response curve (viability, 1 nM-10 uM) (fraction (0-1)); higher = more sensitive
How it was run: as §1

O[C@H]1[C@H](O)[C@@H](O)CN2CC[C@H](O)[C@H]12 [Castanospermine]
Conditions	IC50 (cell viability) [µM]
KCL-22 [1]	> 10

cell viability [%], HL-60 [2]
Conditions	0.001 µM	0.01 µM	0.1 µM	1 µM	10 µM
co-treatment: AZD3965 100 nM	97.9	97.5	104	101	101
co-treatment: DMSO vehicle	98	100.5	96.8	98.7	101
co-treatment: GSK2194069 100 nM	77.1	91.1	103	94.2	99.09
co-treatment: pictilisib 100 nM	108	106	89.4	92.4	99.9

Conditions	area under dose-response curve, co-treatment: AZD3965 100 nM	area under dose-response curve, co-treatment: DMSO vehicle	area under dose-response curve, co-treatment: GSK2194069 100 nM	area under dose-response curve, co-treatment: pictilisib 100 nM	cell viability, 1 nM [%]	cell viability, 10 nM [%]	cell viability, 100 nM [%]	cell viability, 1000 nM [%]	cell viability, 10000 nM [%]
BV-173	–	–	–	–	123	105	95.9	82.4	88.4
HEL	–	–	–	–	113	109	105	126	112
HL-60 [3]	–	–	–	–	94.2	90.7	114	132	143
HL-60 [5]	< 0.0301	< 0.0301	< 0.0301	< 0.0301	–	–	–	–	–
K-562	–	–	–	–	95.1	107	96.5	92.2	106
KCL-22 [4]	–	–	–	–	99	98	112	125	94.9
KG-1	–	–	–	–	120	98.4	116	99.4	104
KU-812	–	–	–	–	96.7	93.5	105	100	94.6
LAMA-84	–	–	–	–	93	97.5	103	95.8	101
ML-2	–	–	–	–	115	107	103	96	94.1
MOLM-13	–	–	–	–	79.9	90.7	108	123	117
MV4-11	–	–	–	–	102	106	97	95.5	107
Mono-Mac-6	–	–	–	–	100	97.3	105	95.1	97.6
NOMO-1	–	–	–	–	105	111	105	105	86.7
SHI-1	–	–	–	–	106	98	108	125	112
THP-1	–	–	–	–	91.9	105	101	96.9	98.8

CCCCC/C=C\C/C=C\C/C=C\C/C=C\CCCC(=O)C(F)(F)F [Arachidonyl trifluoromethyl ketone]
Conditions	IC50 (cell viability) [µM]
KCL-22 [1]	> 10

cell viability [%], HL-60 [2]
Conditions	0.001 µM	0.01 µM	0.1 µM	1 µM	10 µM
co-treatment: AZD3965 100 nM	101	104	101	91.8	98.3
co-treatment: DMSO vehicle	96.7	102	101	101	101
co-treatment: GSK2194069 100 nM	88.4	101	108	89.7	56.72
co-treatment: pictilisib 100 nM	99.6	104	102	81.4	96.6

Conditions	area under dose-response curve, co-treatment: AZD3965 100 nM	area under dose-response curve, co-treatment: DMSO vehicle	area under dose-response curve, co-treatment: GSK2194069 100 nM	area under dose-response curve, co-treatment: pictilisib 100 nM	cell viability, 1 nM [%]	cell viability, 10 nM [%]	cell viability, 100 nM [%]	cell viability, 1000 nM [%]	cell viability, 10000 nM [%]
BV-173	–	–	–	–	103	96.6	95.7	92	76.6
HEL	–	–	–	–	97.5	89.6	118	98.8	80.8
HL-60 [3]	–	–	–	–	98.9	100	108	93.9	96.5
HL-60 [5]	< 0.0301	< 0.0301	0.0624	< 0.0301	–	–	–	–	–
K-562	–	–	–	–	101	96.1	104	96.8	90.6
KCL-22 [4]	–	–	–	–	96.9	103	105	97.2	87.5
KG-1	–	–	–	–	90.8	102	92.6	90	47.7
KU-812	–	–	–	–	104	86.9	88.4	68.5	61.7
LAMA-84	–	–	–	–	106	95.5	77.6	85.8	79.5
ML-2	–	–	–	–	98.9	98.3	111	99.2	77.8
MOLM-13	–	–	–	–	103	74	85.8	102	86.4
MV4-11	–	–	–	–	99.4	99.8	101	97.6	85.9
Mono-Mac-6	–	–	–	–	98.5	97.9	102	80.7	57.7
NOMO-1	–	–	–	–	90.4	98.7	92.1	84.5	79.9
SHI-1	–	–	–	–	99	101	103	96.9	104
THP-1	–	–	–	–	95.2	103	94.1	87.5	61.1

Nc1nc(O)c2c(CCc3ccc(C(=O)N[C@@H](CCC(=O)O)C(=O)O)cc3)c[nH]c2n1 [Pemetrexed]
Conditions	IC50 (cell viability) [µM]
KCL-22 [1]	0.279

cell viability [%], HL-60 [2]
Conditions	0.001 µM	0.01 µM	0.1 µM	1 µM	10 µM
co-treatment: AZD3965 100 nM	91.8	98.6	107	41.5	28
co-treatment: DMSO vehicle	102	100.6	112	43.8	36.8
co-treatment: GSK2194069 100 nM	71.6	95.7	122	40.1	32.2
co-treatment: pictilisib 100 nM	74.2	100.6	121	47.2	32.2

Conditions	area under dose-response curve, co-treatment: AZD3965 100 nM	area under dose-response curve, co-treatment: DMSO vehicle	area under dose-response curve, co-treatment: GSK2194069 100 nM	area under dose-response curve, co-treatment: pictilisib 100 nM	cell viability, 1 nM [%]	cell viability, 10 nM [%]	cell viability, 100 nM [%]	cell viability, 1000 nM [%]	cell viability, 10000 nM [%]
BV-173	–	–	–	–	89.2	91.9	104	4.73	1.8
HEL	–	–	–	–	104	90.7	57.8	11.6	7.51
HL-60 [3]	–	–	–	–	110	99.6	113	31.5	9.36
HL-60 [5]	0.24	0.233	0.236	0.223	–	–	–	–	–
K-562	–	–	–	–	95.8	104	92.3	68.4	27.8
KCL-22 [4]	–	–	–	–	98.5	102	78.4	36.9	24.3
KG-1	–	–	–	–	92	93.5	91.6	108	102
KU-812	–	–	–	–	98.9	102	71.1	38.6	39.3
LAMA-84	–	–	–	–	99	99.3	40	30.7	26
ML-2	–	–	–	–	102	101	96.3	14	10.5
MOLM-13	–	–	–	–	95.6	101	93.5	4.73	1.7
MV4-11	–	–	–	–	98.7	94.2	106	13.4	5.7
Mono-Mac-6	–	–	–	–	91.2	92.2	87.3	23.5	20.3
NOMO-1	–	–	–	–	91	94.8	82.8	51.9	50.2
SHI-1	–	–	–	–	99.2	102	106	68	43.4
THP-1	–	–	–	–	85	96	101	61.7	56.8

Reference: the supplement of paper PMC8671470
